One data set concerns cardiac allografts. The data set can be described thus: Heterotopic cardiac allograft transplantation in mice: graft beating score, toxicity, body weight. In kind it is in vivo. The protocol:
In studies performed in support of the present methods, hearts of FVB mice (H-2^q) were transplanted into C57BL/6 mice (H-2^b) to provide an animal model for allograft transplantation. Following transplantation, an isozyme-specific εPKC inhibitor was administered to the transplant recipients. The particular inhibitor was TAT47-57-εV1-2 (i.e., εV1-2), which is described herein.
The εPKC-specific inhibitor, εV1-2, or the carrier/control peptide, TAT, was administered to the recipient animals using osmotic pumps to provide continuous treatment from day 3 following allograft transplantation until sacrifice on day 30. All animals were given 20 mg/kg/day of cyclosporine A (CyA) to ensure survival.
Male […] (H-2^q) and C57BL/6J (H-2^b) mice, 6-8 weeks old, were purchased from Jackson Laboratory (Bar Harbor, Me.) and housed at the animal facility at Stanford University Medical Center (Stanford, Calif.). The εVB mice were used as allograft donors and the C57BL/6J mice were used as recipients. […]
Allograft recipient mice were monitored daily. Graft viability was assessed by direct abdominal palpation of the heterotopically transplanted hearts and expressed as beating score, assessed by the Stanford cardiac surgery lab graft scoring system (Tanaka, M. et al. (2004) Circulation 110:II194-9).

The target in a further data set is T1, εPKC (Rattus norvegicus, UniProt P09216).
T1 sequence (P09216 1-737): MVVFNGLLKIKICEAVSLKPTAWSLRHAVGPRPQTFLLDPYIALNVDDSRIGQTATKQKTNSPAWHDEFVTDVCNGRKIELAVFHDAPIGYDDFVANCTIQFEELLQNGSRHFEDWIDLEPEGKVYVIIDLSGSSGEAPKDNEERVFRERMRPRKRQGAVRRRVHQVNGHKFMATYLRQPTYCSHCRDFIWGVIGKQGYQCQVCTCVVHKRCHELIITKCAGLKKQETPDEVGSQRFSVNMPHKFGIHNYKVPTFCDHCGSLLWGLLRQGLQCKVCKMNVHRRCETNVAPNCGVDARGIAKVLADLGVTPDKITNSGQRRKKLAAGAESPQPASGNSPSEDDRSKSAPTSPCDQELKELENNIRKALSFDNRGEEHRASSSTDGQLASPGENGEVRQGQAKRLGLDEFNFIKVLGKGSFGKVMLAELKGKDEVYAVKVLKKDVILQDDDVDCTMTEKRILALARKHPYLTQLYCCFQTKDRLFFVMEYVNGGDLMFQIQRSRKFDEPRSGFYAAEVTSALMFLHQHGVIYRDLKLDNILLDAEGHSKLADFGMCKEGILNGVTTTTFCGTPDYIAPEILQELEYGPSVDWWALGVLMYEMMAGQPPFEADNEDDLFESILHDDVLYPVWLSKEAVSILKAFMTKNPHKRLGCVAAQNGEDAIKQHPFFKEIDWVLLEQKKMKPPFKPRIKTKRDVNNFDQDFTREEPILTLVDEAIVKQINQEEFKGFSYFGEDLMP
To be noted: from cited literature; cited from earlier work.

The source of these data is patent publication US20090124553A1, “Suppression of inflammation associated with transplantation using an epsilon PKC inhibitor” (priority 2007, published 2009).

For the molecule `CC(C)C[C@H](NC(=O)[C@H](CO)NC(=O)[C@@H](NC(=O)[C@H](C)NC(=O)[C@H](CCC(=O)O)NC(=O)[C@@H](N)CSSC[C@H](N)C(=O)N[C@@H](Cc1ccc(O)cc1)C(=O)NCC(=O)N[C@@H](CCCNC(=N)N)C(=O)N[C@@H](CCCCN)C(=O)N[C@@H](CCCCN)C(=O)N[C@@H](CCCNC(=N)N)C(=O)N[C@@H](CCCNC(=N)N)C(=O)N[C@@H](CCC(N)=O)C(=O)N[C@@H](CCCNC(=N)N)C(=O)N[C@@H](CCCNC(=N)N)C(=O)N[C@@H](CCCNC(=N)N)C(=O)O)C(C)C)C(=O)N[C@@H](CCCCN)C(=O)N1CCC[C@H]1C(=O)N[C@H](C(=O)O)[C@@H](C)O` [εV1-2], the toxic effects entry in the data set on cardiac allografts (allograft recipient mice treated day 3-30, compared to TAT-treated group) was “did not demonstrate toxic effects”. Also, the body weight in the data set on cardiac allografts (allograft recipient mice, Mean±SEM) is 21.7 ± 0.9 g.
Consider HNAPIGYD, for which the “function on εPKC (agonist / antagonist)” value with εPKC is reported as “functioned as a εPKC antatgonist/inhibitor”.
“ψεRACK: peptide HDAPIGYD (εPKC 85-92; SEQ ID NO: 9), εPKC-selective agonist”: the “function on εPKC (agonist / antagonist)” value with εPKC is recorded as “functioned as a εPKC-selective agonist”.
